From patent US20240208992A1, “MACROCYCLES AS CFTR MODULATORS” (Idorsia Pharmaceuticals Ltd, priority 2021, published 2024)

Target: human F508del-CFTR (Homo sapiens, UniProt P13569, DEL508-508)
Assay: F508del-CFTR cell surface expression (corrector activity), DiscoveRx ß-galactosidase complementation chemiluminescence assay in recombinant U2OS cell line;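 note: U2OS cells co-expressing ProLink-tagged F508del-CFTR and a membrane-anchored enzyme acceptor, where more surface CFTR restores β-galactosidase activity measured by chemiluminescence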
Conditions: for EC50: EC50, F508del-CFTR cell surface expression, U2OS cells, 16h compound incubation, geomean values; for Emax: U2OS, in relation to Emax of corrector lumacaftor (=100%), arithmetic mean values

Sequence of human F508del-CFTR (P13569 with tags, fused parts or gaps DEL508-508): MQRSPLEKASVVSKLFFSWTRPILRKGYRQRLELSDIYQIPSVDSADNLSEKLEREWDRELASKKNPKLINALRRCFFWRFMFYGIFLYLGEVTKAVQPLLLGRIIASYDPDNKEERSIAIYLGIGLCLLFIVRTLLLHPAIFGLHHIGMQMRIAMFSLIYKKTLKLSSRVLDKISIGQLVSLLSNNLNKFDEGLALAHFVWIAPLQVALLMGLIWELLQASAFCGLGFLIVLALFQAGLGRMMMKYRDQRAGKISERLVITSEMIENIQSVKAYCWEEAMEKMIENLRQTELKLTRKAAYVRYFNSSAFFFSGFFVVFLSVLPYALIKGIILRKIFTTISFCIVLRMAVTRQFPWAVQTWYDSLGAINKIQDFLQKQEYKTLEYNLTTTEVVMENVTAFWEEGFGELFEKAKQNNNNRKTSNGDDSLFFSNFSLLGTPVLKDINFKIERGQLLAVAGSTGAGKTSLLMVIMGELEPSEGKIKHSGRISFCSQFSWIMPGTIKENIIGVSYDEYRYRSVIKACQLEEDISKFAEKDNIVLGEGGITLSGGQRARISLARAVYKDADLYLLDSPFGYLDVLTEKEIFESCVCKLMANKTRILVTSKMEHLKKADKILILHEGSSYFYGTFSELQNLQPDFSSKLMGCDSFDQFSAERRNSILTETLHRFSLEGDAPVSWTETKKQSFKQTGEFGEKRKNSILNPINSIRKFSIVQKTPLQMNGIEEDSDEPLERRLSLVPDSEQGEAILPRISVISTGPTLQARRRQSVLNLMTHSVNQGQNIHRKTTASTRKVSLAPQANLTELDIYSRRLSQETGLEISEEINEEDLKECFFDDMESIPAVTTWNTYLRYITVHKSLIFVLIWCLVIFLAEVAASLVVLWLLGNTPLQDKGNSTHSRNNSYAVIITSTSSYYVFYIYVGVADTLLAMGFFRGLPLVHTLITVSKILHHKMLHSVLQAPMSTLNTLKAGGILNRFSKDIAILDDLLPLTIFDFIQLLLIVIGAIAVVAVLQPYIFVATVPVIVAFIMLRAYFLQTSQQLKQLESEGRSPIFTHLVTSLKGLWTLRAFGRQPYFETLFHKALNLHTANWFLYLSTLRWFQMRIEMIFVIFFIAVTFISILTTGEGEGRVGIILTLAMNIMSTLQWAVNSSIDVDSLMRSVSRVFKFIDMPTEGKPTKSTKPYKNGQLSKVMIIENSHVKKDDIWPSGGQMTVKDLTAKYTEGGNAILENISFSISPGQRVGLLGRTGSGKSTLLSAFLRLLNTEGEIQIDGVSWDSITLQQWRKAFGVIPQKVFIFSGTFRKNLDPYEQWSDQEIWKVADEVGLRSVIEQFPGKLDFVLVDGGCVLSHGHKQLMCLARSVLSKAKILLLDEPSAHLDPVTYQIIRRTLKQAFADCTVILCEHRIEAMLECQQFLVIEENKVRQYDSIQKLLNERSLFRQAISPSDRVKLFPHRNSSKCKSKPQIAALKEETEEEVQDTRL

Row | Structure (SMILES) | EC50 | Emax
1 | COc1cccc(CCNC(=O)[C@@H]2CC(=O)N(C)[C@@H](CC(C)C)C(=O)N(C)[C@H](C)C(=O)N[C@H](Cc3ccccc3)COc3ccnc(OC)c3C(=O)N2)c1 [Example 768, (3R,6R,9S,13S)-3-benzyl-9-isobutyl-16-methoxy-N-(3-methoxyphenethyl)-6,7,10-trimethyl-5,8,11,15-tetraoxo-2,3,4,5,6,7,8,9,10,11,12,13,14,15-tetradecahydropyrido[3,4-p][1]oxa[4,7,10,14]tetraazacycloheptadecine-13-carboxamide] | 497 nM | 292%
2 | COc1cc(CCNC(=O)[C@@H]2CC(=O)N(C)[C@@H](CC(C)C)C(=O)N3CCCC[C@@H]3C(=O)N[C@H](Cc3ccccc3)COc3ccc4ncc(F)cc4c3C(=O)N2)on1 [Example 769, (9S,13S,19aR,22R)-22-benzyl-5-fluoro-13-isobutyl-N-(2-(3-methoxyisoxazol-5-yl)ethyl)-12-methyl-7,11,14,20-tetraoxo-7,8,9,10,11,12,13,14,17,18,19,19a,20,21,22,23-hexadecahydro-16H-pyrido[2′,1′:6,7][1]oxa[4,7,10,14]tetraazacycloheptadecino[16,17-f]quinoline-9-carboxamide] | 140 nM | 346%
3 | COc1cc(CCNC(=O)[C@@H]2CC(=O)N(C)[C@@H](CC(C)C)C(=O)N3CCCC[C@H]3C(=O)N[C@H](Cc3ccccc3)COc3ccc4ncc(F)cc4c3C(=O)N2)on1 [Example 770, (9S,13S,19aS,22R)-22-benzyl-5-fluoro-13-isobutyl-N-(2-(3-methoxyisoxazol-5-yl)ethyl)-12-methyl-7,11,14,20-tetraoxo-7,8,9,10,11,12,13,14,17,18,19,19a,20,21,22,23-hexadecahydro-16H-pyrido[2′,1′:6,7][1]oxa[4,7,10,14]tetraazacycloheptadecino[16,17-f]quinoline-9-carboxamide] | 1000 nM | 228%
4 | COc1cc(CCNC(=O)[C@@H]2CC(=O)N(C)[C@@H](CC(C)C)C(=O)N(C)[C@H](C)C(=O)N[C@H](Cc3ccccc3)COc3ccnc(OC)c3C(=O)N2)on1 [Example 771, (3R,6R,9S,13S)-3-benzyl-9-isobutyl-16-methoxy-N-(2-(3-methoxyisoxazol-5-yl)ethyl)-6,7,10-trimethyl-5,8,11,15-tetraoxo-2,3,4,5,6,7,8,9,10,11,12,13,14,15-tetradecahydropyrido[3,4-p][1]oxa[4,7,10,14]tetraazacycloheptadecine-13-carboxamide] | 597 nM | 299%
5 | COc1cc(CCNC(=O)[C@@H]2CC(=O)N(C)[C@@H](CC(C)C)C(=O)N(C)[C@H](C)C(=O)N[C@H](Cc3ccccc3)COc3cc(C)nc(OC)c3C(=O)N2)on1 [Example 772, (3R,6R,9S,13S)-3-benzyl-9-isobutyl-16-methoxy-N-(2-(3-methoxyisoxazol-5-yl)ethyl)-6,7,10,18-tetramethyl-5,8,11,15-tetraoxo-2,3,4,5,6,7,8,9,10,11,12,13,14,15-tetradecahydropyrido[3,4-p][1]oxa[4,7,10,14]tetraazacycloheptadecine-13-carboxamide] | 514 nM | 343%
6 | CC[C@@H]1C(=O)N[C@H](Cc2ccccc2)COc2cc(C)nc(OC)c2C(=O)N[C@H](C(=O)NCCc2cc(C)no2)CC(=O)N(C)[C@@H](CC(C)C)C(=O)N1C [Example 773, (3R,6R,9S,13S)-3-benzyl-6-ethyl-9-isobutyl-16-methoxy-7,10,18-trimethyl-N-(2-(3-methylisoxazol-5-yl)ethyl)-5,8,11,15-tetraoxo-2,3,4,5,6,7,8,9,10,11,12,13,14,15-tetradecahydropyrido[3,4-p][1]oxa[4,7,10,14]tetraazacycloheptadecine-13-carboxamide] | 841 nM | 339%
